According to PMC10747913, “Preparation of ^18F-Labeled Tracers Targeting Fibroblast Activation Protein via Sulfur [^18F]Fluoride Exchange Reaction” (Pharmaceutics, 2023):
“Also recorded” adds a separate entry of the source.

Key:
human recombinant FAP = target: T1, human recombinant FAP (Homo sapiens, UniProt Q12884); assay: Fluorogenic FAP enzyme inhibition assay (BPS Bioscience #80210, Ala-Pro-AMC substrate); assay type: biochemical; details: for Hill Coefficient: mean with 95% confidence interval in brackets
T1 construct: purchased BPS Bioscience 80210
T1 sequence (Q12884 1-760): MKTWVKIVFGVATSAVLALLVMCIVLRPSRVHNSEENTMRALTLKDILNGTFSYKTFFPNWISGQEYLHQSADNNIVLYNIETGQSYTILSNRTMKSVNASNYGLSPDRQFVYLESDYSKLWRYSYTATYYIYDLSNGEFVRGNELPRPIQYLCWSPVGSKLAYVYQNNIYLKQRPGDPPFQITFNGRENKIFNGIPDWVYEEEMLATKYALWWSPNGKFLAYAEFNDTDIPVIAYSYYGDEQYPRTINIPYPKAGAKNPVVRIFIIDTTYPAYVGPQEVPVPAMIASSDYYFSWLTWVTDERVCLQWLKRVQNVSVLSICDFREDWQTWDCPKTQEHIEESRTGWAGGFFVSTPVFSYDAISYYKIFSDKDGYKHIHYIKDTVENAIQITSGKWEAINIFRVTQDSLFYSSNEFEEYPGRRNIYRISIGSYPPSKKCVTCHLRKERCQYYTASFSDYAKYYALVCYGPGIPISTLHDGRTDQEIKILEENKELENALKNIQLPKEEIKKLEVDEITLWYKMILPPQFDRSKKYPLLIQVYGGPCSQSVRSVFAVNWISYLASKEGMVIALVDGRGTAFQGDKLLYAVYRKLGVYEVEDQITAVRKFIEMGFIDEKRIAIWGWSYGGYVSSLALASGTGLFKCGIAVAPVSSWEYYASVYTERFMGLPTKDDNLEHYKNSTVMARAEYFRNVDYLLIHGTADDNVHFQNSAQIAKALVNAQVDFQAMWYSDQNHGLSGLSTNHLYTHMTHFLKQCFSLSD
Protocol: To determine the inhibitory capacity, a commercial fluorogenic FAP assay was used (BPS Bioscience, San Diego, CA, USA, #80210) according to the manufacturer’s instructions. […] On the day of testing, a 1:10 dilution in the supplied DPP assay buffer was performed for all compounds. […] The fluorogenic peptide substrate (Ala-Pro-AMC dipeptide) was added and the reaction started with the addition of the human recombinant FAP (25 ng/µL). Immediately, the plate was loaded into a multilabel plate reader (Biotek Cytation 5, Agilent, Bellevue, WA, USA) and each well was measured at an excitation wavelength window of 360 ± 20 nm and an emission wavelength window of 450 ± 20 nm. The fluorescence intensity was measured over 15 min in intervals of 15 s, resulting in 61 data points per curve. Controls included blanks (omission of substrate, enzyme and inhibitor), negative (omission of enzyme) and positive controls (omission of inhibitor). The recorded time courses of the type (RFU − RFU0) = f(t) were analyzed with linear regression of the experimental data over the entire measurement period. […] (2) rate=Bottom+(Top−Bottom)×[I]^nH/[I]^nH+IC50^nH
Spanning a range of compound concentrations (50 pM–1 µM), fluorescence intensity changes were followed over 15 min.

[1] = Protocol: Microsome experiments with [^18F]12 in the presence of NADPH were performed according to the procedure recently described by us with slight modifications. […] The radiotracer dissolved in EtOH (4 µL; 5 MBq/µL) was diluted with PBS (496 µL, 0.8% EtOH). This radiotracer solution (100 µL, 0.32% EtOH and 16 MBq/mL or 1.6 µM final) was mixed with PBS (112.5 µL) and human liver microsomes (12.5 µL of 20 mg/mL stock; 1 mg/mL final; Gibco™ Cat. No. HMMCPL, Lot. No. PL050E-B) in a 1.5 mL Eppendorf tube and the mixture was warmed for 5 min at 37 °C. Subsequently, NADPH (25 µL of freshly prepared 20 mM solution in PBS, 2 mM final) was added and the mixture was incubated at 37 °C. As a control incubation, NADPH was omitted and replaced by PBS. After distinct time points (10, 20, 30 and 60 min), an aliquot (40 µL) was withdrawn and added to ice-cooled CH3CN (160 µL). The mixture was vortexed for 30 s, stored on ice for 4 min and centrifuged (5 min at 15,000 rpm). The resulting supernatant was used for radio-HPLC analysis using the Shimadzu system described in Section 2.2 with the following conditions. A C18 column Kinetex® from Phenomenex (5 µm, 100 Å, LC Column 250 × 4.6 mm) served as stationary phase. The eluent consisted of (A) 0.1% trifluoroacetic acid in H2O and (B) MeCN; flow rate 1 mL/min; elution profile A/B: t0 min 70/30–t10.0 min 70/30–t11.0 min 5/95–t16.0 min 5/95–t17.0 min 70/30–t22.0 min 70/30.
Testosterone (40 µM final) was used as a positive control for the activity of the HLM and was separately incubated under the conditions described above (0% EtOH final).

[2] = Stability in PBS (pH 7.4); assay type: physicochemical; details: PBS pH 7.4, 120 min
Protocol: (§1) The radiochemical purity and identity of [^18F]12 and [^18F]13 was analyzed with radio-HPLC. […] Prior to a biological evaluation, preliminary stability studies of [^18F]12 and [^18F]13 were performed in human serum at 37 °C (Figure 3A,B). The stability studies were performed by taking an aliquot of the radiolabeled product solution and incubating the product mixture in the desired solvent or human serum at 37 °C for the given time points. In both cases, decomposition of [^18F]12 and [^18F]13 was evident from the first peak in the radioactive channel (tR: 0.6–1.0), most likely due to the release of [^18F]fluoride, which could be detected using UHPLC analysis from the first time point of 15 min and continued until 120 min. After 60 min, approximately 20% of [^18F]12 and 19% of [^18F]13 had been degraded; following a 120 min incubation, approximately 38% of both [^18F]12 and [^18F]13 had been degraded.

[3] = Liver cytosol assay (RLC); assay type: in vitro ADME, rat; details: for stability toward RLC: 2 mg/mL RLC, up to 60 min, 37 °C
Protocol: (§2) Liver cytosol experiments with [^18F]12 were performed according to reported procedures.
(§3) Vanilin (40 µM final) was used as positive control for the activity of the liver cytosols and was separately incubated under the conditions described above (1% EtOH final). […] More than 80% of the vanilin had been degraded after 60 min in the presence of HLC, while around 60% of the vanilin had been degraded with RLC. There was no change in the degradation rate with and without 1% EtOH in the incubation mixture.

[4] = Liver cytosol assay (HLC); assay type: in vitro ADME, human; details: for stability toward HLC: 2 mg/mL HLC, up to 60 min, 37 °C
Protocol: as §2, §3

[5] = Serum stability assay at 37 °C (radio-UHPLC); assay type: in vitro ADME, human; details: for stability in human serum: after only 15 min
Protocol: Either [^18F]12 or [^18F]13 (20–40 MBq) in 40 µL EtOH aliquots was incubated with 360 µL human serum (Sigma Aldrich, Darmstadt, Germany) at 37 °C. After specific time intervals (5–120 min), 40 µL samples were taken from the serum incubation mixture, added to 80 µL “Supersol” solubilizing agent (see Supplementary Materials Table S6) and cooled over ice for 2 min. Thereafter, the cooled mixture was centrifuged at 4 °C (15,000 rpm) for 3 min and 80 µL of the supernatant solution was monitored with radio-UHPLC. A gradient of 5% to 45% acetonitrile in 7.5 min was used for enhanced separation.
as §1

[6] = Small-animal PET distribution in healthy mice; assay type: in vivo, BALB/cJRj mice
Protocol: All animal experiments were carried out according to the guidelines of the German Regulation for Animal Welfare. The protocol was approved by the local Ethical Committee for Animal Experiments. Small-animal PET was performed using the nanoScan® PET/CT (Mediso Medical Imaging Systems, Budapest, Hungary). Each animal (BALB/cJRj mice, n = 2) received an intravenous injection of 10 MBq [^18F]12 delivered in 0.15 mL of 0.154 mol/L NaClaq through a tail vein catheter. Emission of annihilation photons was recorded continuously for 2 h. A corresponding X-ray CT image was recorded and used for anatomical referencing and attenuation correction. List-mode data were sorted into sinograms with 36 frames (15 × 10 s, 5 × 30 s, 5 × 60 s, 4 × 300 s, 3 × 600 s, 4 × 900 s) and reconstructed using the Tera-Tomo™ 3D algorithm, applying corrections for decay, scatter and attenuation. […] Three-dimensional regions of interest (ROI) were created, applying fixed contrast thresholds for delineation of blood (heart content, 80%), liver (80%), kidneys (50%), bone (knee and shoulder joints, 50%), gall bladder and intestine (5%) and urinary bladder (10%). Organ-specific activity concentrations were determined as ROI-averaged standardized uptake values at mid-frame time (SUVmean). Time–activity curves were drawn using Prism 9.0 (GraphPad Software, La Jolla, CA, USA) and the activity retention within each organ was reported as the area under the curve (AUC). Excreted activity fractions were determined as the percent of the initially administered activity dose (%ID).

Stability in EtOH = assay type: physicochemical; details: 120 min
Protocol: In addition, we performed a series of stability studies of compounds [^18F]12 and [^18F]13 in EtOH, phosphate-buffered saline (PBS, pH 7.4) and human serum (37 °C) to provide an indication of the rates of in vivo defluorination. […] These findings correlate with the unwanted accumulation of activity in the bones and joints obtained during PET imaging experiments in a healthy mice (Figure 5A,B).

[7] = LogD7.4 determination by n-octanol/PBS partitioning; assay type: physicochemical; details: n-octanol/phosphate-buffered saline; partitioning between PBS pH 7.4 and octanol
Protocol: The LogD7.4 determination of [^18F]12 was determined in a similar manner as previously described and proceeded as follows. [^18F]12 (1 μL, ca. 0.5 MBq) was pipetted into an Eppendorf tube containing 600 μL of n-octanol (presaturated with phosphate-buffered saline) and 600 μL of phosphate-buffered saline buffer (0.02 M, pH = 7.4). The tube was vortexed for 15 min at room temperature, and the two phases were separated by centrifugation at 5000 rpm for 3 min. An aliquot (400 µL) from the n-octanol layer was pipetted in a vial containing phosphate-buffered saline (400 µL), the sample mixture was vortexed for 15 min at room temperature and the two phases were separated by centrifugation at 5000 rpm for 3 min. Aliquots (250 µL) from each phase were taken and measured with an automatic γ-counter after subtracting the background activity. The transfer of the aqueous phase requires particular care, as described by Linclau et al.. The partition coefficient was calculated for the acquired samples using Equation (1). (1) logD7.4=log counts per minute (octanol)/counts per minute (phosphate buffer)

[8] = positive control, 40 µM, after 60 min

With N#C[C@@H]1CC(F)(F)CN1C(=O)CNC(=O)c1ccnc2ccc(OCCCN3CCN(C(=O)CN4CCN(CC(=O)O)CCN(CC(=O)O)CCN(CC(=O)O)CC4)CC3)cc12 [FAPI-04, reference compound] the “Hill Coefficient” value (human recombinant FAP) was −1.51 (−2.51 to −0.95).

In the case of C[C@]12CC[C@H]3[C@@H](CCC4=CC(=O)CC[C@@]43C)[C@@H]1CC[C@@H]2O [Testosterone, reference compound], the “time after which metabolization was completed” value ([1]; human) is reported as > 30 min.

With N#C[C@@H]1CC(F)(F)CN1C(=O)CNC(=O)c1ccnc2ccc(OCCCN3CCN(C(=O)c4ccc(OS(=O)(=O)[18F])cc4)CC3)cc12 [[^18F]12] the “stability in PBS” value [2] was “stable”, the “stability toward RLC” value [3] was “largely stable; also recorded: mostly stable” and the “stability toward RLC” value ([3]; listed as [18F]12) was “No degradation”. The “half-time toward HLM” value ([1]; 1 mg/mL HLM, 2 mM NADPH, 1.6 µM tracer, 37 °C, one-phase decay) was 4.4 min, the “stability in presence of HLM without NADPH (control)” value ([1]; NADPH omitted, 60 min) was “apparently stable” and the “stability toward HLC” value [4] was “largely stable; also recorded: mostly stable”. The “stability toward HLC” value ([4]; listed as [18F]12) was “No degradation”, the “substrate of aldehyde oxidase (AO)” value ([4]; liver cytosols as source of AO) was “not to be a substrate of AO” and the “fraction degraded in human serum” value ([5]; 120 min incubation) was “approximately 38%”. The “fraction degraded in human serum” value ([5]; after 60 min) was “approximately 20%”, the “stability in human serum” value [5] was “clear signs of instability” and the “time of maximum activity concentration in kidney” value ([6]; i.v., after injection) was 2 min. The “time of maximum activity concentration in liver” value ([6]; i.v., after injection) was 2 min, the “activity concentration in bones” value ([6]; i.v., within 2 h) was “continuously increasing” and the “fraction of initially delivered activity dose excreted via hepatobiliary pathway” value ([6]; retention in gall bladder and intestine, 2 h) was 45%. The “fraction of initially delivered activity dose excreted via renal pathway” value ([6]; retention in urinary bladder, 2 h) was 10%, the “stability in EtOH” value (Stability in EtOH) was “stable” and the logD [7] was 1.81.

With N#C[C@@H]1CC(F)(F)CN1C(=O)CNC(=O)c1ccnc2ccc(OCCCN3CCN(C(=O)c4cccc(OS(=O)(=O)[18F])c4)CC3)cc12 [[^18F]13] the “stability in PBS” value [2] was “stable”, the “fraction degraded in human serum” value ([5]; 120 min incubation) was “approximately 38%” and the “fraction degraded in human serum” value ([5]; after 60 min) was ~19%. The “stability in human serum” value [5] was “clear signs of instability” and the “stability in EtOH” value (Stability in EtOH) was “stable”.

For N#C[C@@H]1CC(F)(F)CN1C(=O)CNC(=O)c1ccnc2ccc(OCCCN3CCN(C(=O)c4ccc(OS(=O)(=O)F)cc4)CC3)cc12 [compound 12], the IC50 (human recombinant FAP) was 9.63 nM and the “Hill Coefficient” value (human recombinant FAP) was −1.56 (−2.43 to −1.059).

In the case of N#C[C@@H]1CC(F)(F)CN1C(=O)CNC(=O)c1ccnc2ccc(OCCCN3CCN(C(=O)c4cccc(OS(=O)(=O)F)c4)CC3)cc12 [compound 13], the IC50 (human recombinant FAP) is reported as 4.17 nM and the “Hill Coefficient” value (human recombinant FAP) is reported as −1.27 (−1.98 to −0.91).

For COc1cc(C=O)ccc1O [vanilin, Vanilin, reference compound], the “fraction degraded with RLC” value [3, 8] was “around 60%” and the “fraction degraded in presence of HLC” value [4, 8] was “More than 80%”.
